Read-outs that look alike come from different tables or passages of the source.
Target: T1, Human BCL-XL protein (N-terminal HiBiT tagged BCL-XL in HT1080 cells) (Homo sapiens, UniProt Q07817)
T1 construct: expressed in transfected cells; host or cells: HT-1080 (ATCC CCL-121), stably transduced with lentivirus pLV-UBC-N-HiBiT-BCL-XL-PGK-puro and selected with puromycin
Experiment: HiBiT based degradation assay
Format: cell-based
Conditions: HT1080 cells expressing HiBiT-BCL-XL; for Ymin (24 h) / Ymin (6 h): BCL-XL degradation normalized with DMSO control; for DC50: BCL-XL degradation
How it was run: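 This HiBiT degradation assay measured loss of BCL-XL in HT1080 cells that stably express an N-terminal HiBiT-BCL-XL fusion delivered by lentivirus. Cells were added to compound-spotted 384-well plates, and luminescence was read on a PHERAstar FSX reader. Signal was expressed relative to DMSO controls, curves were fitted by four-parameter logistic regression, and for hook-shaped curves the Ymin point served as the bottom plateau when calculating EC50.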

T1 sequence (Q07817 whole entry): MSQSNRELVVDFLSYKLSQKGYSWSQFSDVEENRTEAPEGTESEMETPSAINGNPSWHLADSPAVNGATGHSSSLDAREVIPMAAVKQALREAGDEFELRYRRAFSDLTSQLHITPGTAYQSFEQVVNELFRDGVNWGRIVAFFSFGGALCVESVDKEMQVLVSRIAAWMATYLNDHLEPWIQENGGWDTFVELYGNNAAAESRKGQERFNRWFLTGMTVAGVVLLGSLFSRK

| Ymin (24 h) | DC50 (24 h, read-out: EC50 (24 h)) [nM] | Ymin (6 h) | DC50 (6 h, read-out: EC50 (6 h)) [nM] | SMILES |
| --- | --- | --- | --- | --- |
| A (Ymin < 50%) | < 100 | – | – | Cc1c(O[C@H]2CC[C@H](C[C@H](C)CN3CCN(c4ccc5c(C6CCC(=O)NC6=O)nn(C)c5c4)CC3)CC2)cccc1-c1ccc(N2CCc3cccc(C(=O)Nc4nc5ccccc5s4)c3C2)nc1C(=O)O (single isomer, unassigned) [Compound 282b, 6-(8-(benzo[d]thiazol-2-ylcarbamoyl)-3,4-dihydroisoquinolin-2(1H)-yl)-3-(3-(((1S,4r)-4-((2S*)-3-(4-(3-(2,6-dioxopiperidin-3-yl)-1-methyl-1H-indazol-6-yl)piperazin-1-yl)-2-methylpropyl)cyclohexyl)oxy)-2-methylphenyl)picolinic acid] |
| A (Ymin < 50%) | < 100 | – | – | Cc1c(O[C@H]2CC[C@H](CCCC(C)(C)N3CCN(c4ccc5c(C6CCC(=O)NC6=O)nn(C)c5c4)CC3)CC2)cccc1-c1ccc(N2CCc3cccc(C(=O)Nc4nc5ccccc5s4)c3C2)nc1C(=O)O (stereo partly shown) [Compound 350a, 6-(8-(benzo[d]thiazol-2-ylcarbamoyl)-3,4-dihydroisoquinolin-2(1H)-yl)-3-(3-(((1s,4r)-4-(4-(4-(3-(2,6-dioxopiperidin-3-yl)-1-methyl-1H-indazol-6-yl)piperazin-1-yl)-4-methylpentyl)cyclohexyl)oxy)-2-methylphenyl)picolinic acid] |
| A (Ymin < 50%) | < 100 | – | – | Cc1c(OCCC2CC3(C2)CN(CC(=O)Nc2ccc4c(C5CCC(=O)NC5=O)nn(C)c4c2)C3)cccc1-c1ccc(N2CCc3cccc(C(=O)Nc4nc5ccccc5s4)c3C2)nc1C(=O)O (stereo not shown) [Compound 277, 6-(8-(benzo[d]thiazol-2-ylcarbamoyl)-3,4-dihydroisoquinolin-2(1H)-yl)-3-(3-(2-(2-(2-((3-(2,6-dioxopiperidin-3-yl)-1-methyl-1H-indazol-6-yl)amino)-2-oxoethyl)-2-azaspiro[3.3]heptan-6-yl)ethoxy)-2-methylphenyl)picolinic acid] |
| A (Ymin < 50%) | < 100 | – | – | Cc1c(OCCCC2CCN(CCN3CCN(c4cccc5c(C6CCC(=O)NC6=O)nn(C)c45)CC3)CC2)cccc1-c1ccc(N2CCc3cccc(C(=O)Nc4nc5ccccc5s4)c3C2)nc1C(=O)O (stereo not shown) [Compound 230, 6-(8-(benzo[d]thiazol-2-ylcarbamoyl)-3,4-dihydroisoquinolin-2(1H)-yl)-3-(3-(3-(1-(2-(4-(3-(2,6-dioxopiperidin-3-yl)-1-methyl-1H-indazol-7-yl)piperazin-1-yl)ethyl)piperidin-4-yl)propoxy)-2-methylphenyl)picolinic acid] |
| A (Ymin < 50%) | < 100 | – | – | Cc1c(O[C@H]2CC[C@H](CC[C@H](C)N3CCN(c4ccc5c(C6CCC(=O)NC6=O)nn(C)c5c4)CC3)CC2)cccc1-c1ccc(N2CCc3cccc(C(=O)Nc4nc5ccccc5s4)c3C2)nc1C(=O)O (single isomer, unassigned) [Compound 281a] |
| A (Ymin < 50%) | < 100 | – | – | Cc1c(O[C@H]2CCC3(CCN(CC(=O)Nc4ccc5c(C6CCC(=O)NC6=O)nn(C)c5c4)CC3)C2)cccc1-c1ccc(N2CCc3cccc(C(=O)Nc4nc5ccccc5s4)c3C2)nc1C(=O)O (single isomer, unassigned) [Compound 268a] |
| A (Ymin < 50%) | < 100 | – | – | Cc1c(OCCC[C@@H]2CCCN(CC(=O)Nc3ccc4c(C5CCC(=O)NC5=O)nn(C)c4c3)C2)cccc1-c1ccc(N2CCc3cccc(C(=O)Nc4nc5ccccc5s4)c3C2)nc1C(=O)O (stereo partly drawn) [Compound 207a, 6-(8-(benzo[d]thiazol-2-ylcarbamoyl)-3,4-dihydroisoquinolin-2(1H)-yl)-3-(3-(3-((3S)-1-(2-((3-(2,6-dioxopiperidin-3-yl)-1-methyl-1H-indazol-6-yl)amino)-2-oxoethyl)piperidin-3-yl)propoxy)-2-methylphenyl) picolinic acid] |
| A (Ymin < 50%) | < 100 | – | – | Cc1c(O[C@H]2CC[C@H](C[C@@H](C)CN3CCN(c4ccc5c(C6CCC(=O)NC6=O)nn(C)c5c4)CC3)CC2)cccc1-c1ccc(N2CCc3cccc(C(=O)Nc4nc5ccccc5s4)c3C2)nc1C(=O)O (single isomer, unassigned) [Compound 282a] |
| A (Ymin < 50%) | < 100 | – | – | Cc1c(O[C@H]2CC[C@H](CCCN3CCN(c4ccc5c(C6CCC(=O)NC6=O)nn(C)c5c4)[C@@H](C)C3)CC2)cccc1-c1ccc(N2CCc3cccc(C(=O)Nc4nc5ccccc5s4)c3C2)nc1C(=O)O (stereo partly drawn) [Compound 278b, 6-(8-(benzo[d]thiazol-2-ylcarbamoyl)-3,4-dihydroisoquinolin-2(1H)-yl)-3-(3-(((1R,4r)-4-(3-((3S)-4-(3-(2,6-dioxopiperidin-3-yl)-1-methyl-1H-indazol-6-yl)-3-methylpiperazin-1-yl)propyl)cyclohexyl)oxy)-2-methylphenyl)picolinic acid] |
| A (Ymin < 50%) | < 100 | – | – | Cc1c(O[C@H]2CC[C@H](CCCCN3CCN(c4ccc5c(C6CCC(=O)NC6=O)nn(C)c5c4)[C@H](C)C3)CC2)cccc1-c1ccc(N2CCc3cccc(C(=O)Nc4nc5ccccc5s4)c3C2)nc1C(=O)O (stereo partly drawn) [Compound 300a, 6-(8-(benzo[d]thiazol-2-ylcarbamoyl)-3,4-dihydroisoquinolin-2(1H)-yl)-3-(3-(((1s,4r)-4-(4-((3R)-4-(3-(2,6-dioxopiperidin-3-yl)-1-methyl-1H-indazol-6-yl)-3-methylpiperazin-1-yl)butyl)cyclohexyl)oxy)-2-methylphenyl)picolinic acid] |
| A (Ymin < 50%) | < 100 | B (50% ≤ Ymin < 70%) | < 100 | Cc1c(O[C@H]2CC[C@H](CCCN3CCN(c4cccc5c(C6CCC(=O)NC6=O)nn(C)c45)CC3)CC2)cccc1-c1ccc(N2CCc3cccc(C(=O)Nc4nc5ccccc5s4)c3C2)nc1C(=O)O (stereo partly shown) [Compound 147a, 6-(8-(benzo[d]thiazol-2-ylcarbamoyl)-3,4-dihydroisoquinolin-2(1H)-yl)-3-(3-(((1s,4r)-4-(3-(4-(3-(2,6-dioxopiperidin-3-yl)-1-methyl-1H-indazol-7-yl)piperazin-1-yl)propyl)cyclohexyl)oxy)-2-methylphenyl)picolinic acid] |
| – | – | B (50% ≤ Ymin < 70%) | < 100 | Cc1c(OCCN2C[C@@H](C)N(CC(=O)Nc3ccc4c(C5CCC(=O)NC5=O)nn(C)c4c3)[C@@H](C)C2)cccc1-c1ccc(N2CCc3cccc(C(=O)Nc4nc5ccccc5s4)c3C2)nc1C(=O)O (stereo partly drawn) [Compound 159a, 6-(8-(benzo[d]thiazol-2-ylcarbamoyl)-3,4-dihydroisoquinolin-2(1H)-yl)-3-(3-(2-((3R,5S)-4-(2-((3-(2,6-dioxopiperidin-3-yl)-1-methyl-1H-indazol-6-yl)amino)-2-oxoethyl)-3,5-dimethylpiperazin-1-yl)ethoxy)-2-methylphenyl)picolinic acid] |
| A (Ymin < 50%) | < 100 | – | – | Cc1cc(O[C@@H](C)CCC2CCN(CC(=O)Nc3ccc4c(C5CCC(=O)NC5=O)nn(C)c4c3)CC2)ccc1-c1ccc(N2CCc3cccc(C(=O)Nc4nc5ccccc5s4)c3C2)nc1C(=O)O (stereo in doubt) [Compound 276b, 6-[8-(1,3-benzothiazol-2-ylcarbamoyl)-3,4-dihydro-1H-isoquinolin-2-yl]-3-[4-[(1S)-3-[1-[2-[[3-(2,6-dioxo-3-piperidyl)-1-methyl-indazol-6-yl]amino]-2-oxo-ethyl]-4-piperidyl]-1-methyl-propoxy]-2-methyl-phenyl]pyridine-2-carboxylic acid] |
| A (Ymin < 50%) | < 100 | – | – | Cc1c(OCCC2CCN(CCC3CCN(c4ccc5c(C6CCC(=O)NC6=O)nn(C)c5c4)CC3)CC2)cccc1-c1ccc(N2CCc3cccc(C(=O)Nc4nc5ccccc5s4)c3C2)nc1C(=O)O (stereo not shown) [Compound 223, 6-(8-(benzo[d]thiazol-2-ylcarbamoyl)-3,4-dihydroisoquinolin-2(1H)-yl)-3-(3-(2-(1-(2-(1-(3-(2,6-dioxopiperidin-3-yl)-1-methyl-1H-indazol-6-yl)piperidin-4-yl)ethyl)piperidin-4-yl)ethoxy)-2-methylphenyl)picolinic acid] |
| – | – | A (Ymin < 50%) | < 100 | Cc1c(OCCCCCCCCCN2CCN(c3cccc4c(C5CCC(=O)NC5=O)nn(C)c34)CC2)cccc1-c1ccc(N2CCc3cccc(C(=O)Nc4nc5ccccc5s4)c3C2)nc1C(=O)O (stereo not shown) [Compound 237, 6-[8-(1,3-benzothiazol-2-ylcarbamoyl)-3,4-dihydro-1H-isoquinolin-2-yl]-3-[3-[9-[4-[3-(2,6-dioxo-3-piperidyl)-1-methyl-indazol-7-yl]piperazin-1-yl]nonoxy]-2-methyl-phenyl]pyridine-2-carboxylic acid] |

| SMILES | Ymin (24 h) | DC50 (24 h, read-out: EC50 (24 h)) [nM] | Ymin (6 h) | DC50 (6 h, read-out: EC50 (6 h)) [nM] |
| --- | --- | --- | --- | --- |
| Cc1c(OCC[C@H](C)C2CCN(CC(=O)Nc3cccc4c(C5CCC(=O)NC5=O)nn(C)c34)CC2)cccc1-c1ccc(N2CCc3cccc(C(=O)Nc4nc5ccccc5s4)c3C2)nc1C(=O)O (stereo partly drawn) [Compound 173a, 6-(8-(benzo[d]thiazol-2-ylcarbamoyl)-3,4-dihydroisoquinolin-2(1H)-yl)-3-(3-((3S)-3-(1-(2-((3-(2,6-dioxopiperidin-3-yl)-1-methyl-1H-indazol-7-yl)amino)-2-oxoethyl)piperidin-4-yl)butoxy)-2-methylphenyl)picolinic acid] | B (50% ≤ Ymin < 70%) | < 100 | – | – |
